Results as given in patent publication US20240287463A1, “INDUCIBLE TISSUE CONSTRUCTS AND USES THEREOF” (Massachusetts Institute of Technology, priority 2020, published 2024).

Experiments:
[1] = biological target: T1, inducible caspase-9 (iCasp9) (Homo sapiens, UniProt P55211); assay: caspase-9 activation in CID-treated iCasp9-GFP J2 fibroblasts (antibody staining, Caspase-Glo 9); type: cell-based
T1 construct: #15567 pMSCV-F-del Casp9.IRES.GFP; host or cells: 3T3-J2 fibroblasts, lentivirally transduced
Source text: Inducible caspase-9 (iCasp9), which is activated by treatment with a small molecule chemical inducer of dimerization (CID; also known as rapalog, an analog of rapamycin) and leads to subsequent cell death through the intrinsic apoptosis pathway was utilized (FIG. 1A). The safety and efficacy of the iCasp9 transgene and CID have previously been shown in vitro and in vivo in animals and humans (A. Di Stasi, et al. (2011) dx.doi.org/10.1056/NEJMoa1106152; T. Gargett and M. P. Brown (2014) Front. Pharmacol. 5; K. C. Straathof, et al. (2005) Blood 105, 4247, each of which is herein incorporated by this reference). To generate inducible cells, 3T3-J2 fibroblasts (‘J2’) were transduced with lentivirus with a bidirectional expression cassette encoding iCasp9 and GFP genes (#15567 pMSCV-F-del Casp9.IRES.GFP; cloned to a lentivirus plasmid backbone with an SFFV promoter). FACS was used to enrich the infected population for the 15% highest-expression GFP+ cells. […] To transfect J2s, virus was added to growth media and cultured overnight. iCasp9-GFP J2 fibroblasts at passage 22 were grown at confluence for 2 weeks to mimic experimental culture conditions, without a decrease in the percentage of the cell population with positive GFP expression. iCasp9-GFP J2s were plated in monolayer and dosed with ethanol vehicle or CID (B/B homodimerizer, AP20187; rapalog; Takara/ClonTech), and then assayed for cell viability using the CellTiter-Glo® Luminescent Cell Viability Assay (Promega), for caspase-9 activation using the CaspGLOW™ Fluorescein Active Caspase-9 Staining Kit (Thermo Fisher Scientific) and Caspase-Glo®9 Assay Systems (Promega), or stained with the Pacific Blue Annexin V/SYTOXTM AADvanced™ Apoptosis Kit (Thermo Fisher) to identify apoptotic cells by flow cytometry (>100,000 cells analyzed per condition).
After iCasp9-GFP J2 fibroblasts were exposed to CID, iCasp9 dimers were detected by staining with a caspase-9 antibody (FIG. 1C). […]

iCasp9-GFP J2s = assay: cell viability / removal from monolayer culture (CellTiter-Glo); type: cell-based; conditions: after CID exposure (500 nM, 50 nM, 5 nM in FIG. 1G)
Source text: Inducible caspase-9 (iCasp9), which is activated by treatment with a small molecule chemical inducer of dimerization (CID; also known as rapalog, an analog of rapamycin) and leads to subsequent cell death through the intrinsic apoptosis pathway was utilized (FIG. 1A). The safety and efficacy of the iCasp9 transgene and CID have previously been shown in vitro and in vivo in animals and humans (A. Di Stasi, et al. (2011) dx.doi.org/10.1056/NEJMoa1106152; T. Gargett and M. P. Brown (2014) Front. Pharmacol. 5; K. C. Straathof, et al. (2005) Blood 105, 4247, each of which is herein incorporated by this reference). To generate inducible cells, 3T3-J2 fibroblasts (‘J2’) were transduced with lentivirus with a bidirectional expression cassette encoding iCasp9 and GFP genes (#15567 pMSCV-F-del Casp9.IRES.GFP; cloned to a lentivirus plasmid backbone with an SFFV promoter). FACS was used to enrich the infected population for the 15% highest-expression GFP+ cells. […]
After iCasp9-GFP J2 fibroblasts were exposed to CID, iCasp9 dimers were detected by staining with a caspase-9 antibody (FIG. 1C). […] To confirm that CID-triggered caspase-9 activation led to apoptosis, unfixed cells were stained with Annexin V, which binds to an early indicator of apoptosis, and SYTOX, a general marker of cell death, and analyzed by flow cytometry.

HUVECs = assay: vascular perfusion in tri-culture microfluidic devices; type: cell-based, human; conditions: 50 nM CID after 5 days of tri-culture
Source text: Given that fibroblasts are only transiently required for supporting the formation of a functional vasculature, it was investigated whether CAMEO could be used in the vascularization of tissue constructs with organ-specific parenchymal cells without negatively affecting the function of the parenchymal cells. To investigate this, a tri-culture system of HUVECs, iCasp9-HDFs, and primary human hepatocytes was employed in the microfluidic device. Using the methods described in Example 5, a solution of HUVECs (3 million cells/mL), iCasp-9 HDFs (total of 6 million cells/mL), hepatic aggregates (0.36 million aggregates/mL with about 150 hepatocytes per aggregate), fibrinogen (2.5 mg/mL), thrombin (1 U/mL) was made in a 1:1 mixed media of EGM-2 and hepatocyte maintenance media. After 5 days of tri-culture, the devices were treated with 50 nM CID to remove the iCasp9-HDFs, or with vehicle control. All samples were fixed at day 7 to evaluate vascular perfusion (FIG. 8A). […] To evaluate whether the hepatocytes remained functional after CID treatment, levels of albumin and urea, markers for hepatic protein synthesis function and nitrogen metabolism, respectively, were measured in the media.

[2] = tested on: implanted hepatocyte tissue constructs; assay: human albumin in plasma of mice implanted with hepatocyte/iCasp9-HDF/HUVEC constructs (ELISA); type: in vivo; conditions: 10 mg/kg on days 5 and 6 post-implantation, plasma at day 7
Description: Following the confirmation of vessel maintenance and anastomosis and ability to induce death of implanted fibroblasts in vivo, hepatocyte function was evaluated in implanted hepatocyte tissue constructs. Specifically, mice were implanted with hepatocyte/iCasp9-HDF/HUVEC tissue constructs after in vitro culture for 7 days. Constructs were implanted in mouse fat pads as described above, and treated with 10 mg/kg CID or vehicle on days 5 and 6 post-implantation. At day 7, blood was collected and centrifuged to isolate plasma.

T1 sequence (P55211 with tags, fused parts or gaps limits assumed): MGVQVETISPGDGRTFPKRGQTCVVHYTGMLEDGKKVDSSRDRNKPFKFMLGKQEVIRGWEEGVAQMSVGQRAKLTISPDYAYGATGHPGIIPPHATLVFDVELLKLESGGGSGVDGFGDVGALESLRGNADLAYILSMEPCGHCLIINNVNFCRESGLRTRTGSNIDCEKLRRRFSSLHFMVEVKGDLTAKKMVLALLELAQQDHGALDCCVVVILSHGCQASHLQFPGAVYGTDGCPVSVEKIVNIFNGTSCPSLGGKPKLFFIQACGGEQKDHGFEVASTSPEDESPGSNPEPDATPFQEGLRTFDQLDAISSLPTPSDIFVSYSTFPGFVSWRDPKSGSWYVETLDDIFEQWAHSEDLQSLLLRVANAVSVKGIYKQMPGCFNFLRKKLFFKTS

With CC[C@H](C(=O)N1CCCC[C@H]1C(=O)O[C@H](CCc1ccc(OC)c(OC)c1)c1cccc(OCC(=O)NCC(CNC(=O)COc2cccc([C@@H](CCc3ccc(OC)c(OC)c3)OC(=O)[C@@H]3CCCCN3C(=O)[C@@H](CC)c3cc(OC)c(OC)c(OC)c3)c2)CN(C)C)c1)c1cc(OC)c(OC)c(OC)c1 [CID, AP20187] the Caspase-9 staining ([1]; 50 nM CID, collected 15 and 30 minutes after treatment) was “increased”, the “caspase-9 cleavage compared to wild-type J2s” value ([1]; 15 minutes after CID dosing) was 16 fold and the “caspase-9 cleavage compared to wild-type J2s” value ([1]; 30 minutes after CID dosing) was 18 fold. For the same compound, the “time to efficient removal from culture” value (iCasp9-GFP J2s) was ≤ 1 h, the “vascular perfusion at day 7” value (HUVECs) was “formed perfusable vasculature” and the “human albumin secretion compared to vehicle control and in vitro CID treated constructs” value [2] was “similar”.
